Values quoted from earlier work, collected in paper PMC7395068, “The evolution of strategies to minimise the risk of human drug-induced liver injury (DILI) in drug discovery and development” (Archives of Toxicology, 2020).
Read-outs that look alike come from different tables or passages of the source.

How the values were obtained:
[1] = test system: THLE or HepG2 cells, isolated mitochondria, BSEP; conditions: In vitro Assay; ref Aleo 2019; cited from earlier work
[2] = test system: HepG2 C3A spheroid, BSEP, Glu/Gal in HepG2 cells, bioactivation; conditions: cited from earlier work
[3] = cited from earlier work
[4] = ref Chen 2016; cited from earlier work
[5] = test system: PHH; conditions: In vitro Assay; ref Proctor 2017; cited from earlier work
[6] = test system: hLiMTs; conditions: In vitro Assay; ref Proctor 2017; cited from earlier work
[7] = test system: primary human hepatocytes, NIH3T3 fibroblasts, BSEP, CYP3A4; conditions: In vitro Assay; ref Schadt 2015; cited from earlier work
[8] = test system: HepG2 cells; conditions: cited from earlier work; for Cluser analysis / Structural based (HCI): In vitro Assay, ref Persson 2013
[9] = test system: THLE-Null and THLE-3A4 cells; conditions: In vitro Assay; ref Gustafsson 2014; cited from earlier work
[10] = test system: human hepatocytes; conditions: In vitro Assay; ref Xu 2008; cited from earlier work
[11] = test system: HepG2 cells, primary human hepatocytes; conditions: In vitro Assay; ref Garside 2014; cited from earlier work
[12] = test system: rBsep; conditions: In vitro Assay; ref Dawson 2012; cited from earlier work
[13] = test system: HepG2 cells; conditions: In vitro Assay; ref O'Brien 2006; cited from earlier work
[14] = test system: PHH spheroids; conditions: In vitro Assay; ref Vorrink 2018; cited from earlier work
[15] = In vitro Assay, ref Williams 2019

Structure (SMILES)	Bayesian Machine Learning ([2]; ref Williams 2019)	In vivo DILI ([3]; ref Proctor 2017)	In vivo DILI ([3]; ref Williams 2019)	DILI +VE (5-8), DILI -VE (-4) [4]	DILI severity category [4]	PHH ATP <100uM [5]	hLiMTs ATP <100uM [6]	Cellular toxicity (3T3 cells) [7]	Combined Assay [7]	GSH adduct HML [7]	Hepatocyte cellular toxicity [7]	MitoTox 3T3 [7]	TDI CYP3A4 [7]	hBSEP inhibition [7]	Bayesian Machine Learning [2, 15]	In vivo DILI ([3]; ref Schadt 2015)	THLE-Null [9]	also measured
CC(C)(C)NCC(O)c1ccc(O)c(CO)c1 (centres unmarked) [albuterol]	-VE	-VE	-VE	–	–	–	–	–	–	–	–	–	–	–	–	–	–	Partition Hybrid HRM Score [1]: -VE; Ro2 Hybrid HRM Score [1]: -VE; In vivo DILI ([3]; ref Aleo 2019): -VE
CN1[C@@H]2CC[C@H]1C[C@@H](OC(c1ccccc1)c1ccccc1)C2 [benztropine]	-VE	-VE	-VE	-VE	vNo-DILI-Concern	+VE (IC50 threshold of 100 µM)	+VE (IC50 threshold of 100 µM)	–	–	–	–	–	–	–	–	–	–	Ro2 Hybrid HRM Score [1]: -VE; In vivo DILI ([3]; ref Aleo 2019): -VE
Nc1c(CC(=O)O)cccc1C(=O)c1ccc(Br)cc1 [bromfenac, reference compound]	–	–	+VE	+VE	vMost-DILI-Concern	–	–	-VE	-VE	-VE	-VE	-VE	-VE	-VE	+VE	+VE	-VE	Cluser analysis [8]: -VE; Structural based (HCI) [8]: -VE; DILI in vitro assay prediction, Persson (2013) ([8]; Structural based (HCI), HepG2, ref Persson et al. 2013): negative; Partition Hybrid HRM Score [1]: +VE; Ro2 Hybrid HRM Score [1]: +VE; In vivo DILI ([3]; […]): +VE; In vivo DILI ([3]; ref Aleo 2019): +VE; In vivo DILI ([3]; ref Gustafsson 2014): +VE; In vivo DILI ([3]; ref Persson 2013): +VE; THLE-Null/3A4 [9]: -VE
CN(C)CCCN1c2ccccc2CCc2ccc(Cl)cc21 [clomipramine]	–	–	–	–	–	–	–	–	–	–	–	–	–	–	+VE	–	–	Structural based (HCI) [10]: -VE; Cluster 1-6 +VE Assay [11]: +VE
N[C@@H]1CON=C1O [cycloserine]	–	–	–	–	–	–	–	–	–	–	–	–	–	–	-VE	–	-VE	Inhibition of rBsep cutoff<1& cmax u>.2 [12]: -VE; Inhibition of rBsep cutoff<3 [12]: -VE
Cc1onc(-c2c(F)cccc2Cl)c1C(=O)N[C@@H]1C(=O)N2[C@@H]1SC(C)(C)[C@@H]2C(=O)O [flucloxacillin]	–	+VE	+VE	–	–	+VE (IC50 threshold of 100 µM)	-VE	–	–	–	–	–	–	–	+VE	–	-VE	In vivo DILI ([3]; ref Dawson 2012): +VE; In vivo DILI ([3]; ref Gustafsson 2014): +VE; THLE-Null/3A4 [9]: -VE; Inhibition of rBsep cutoff<1& cmax u>.2 [12]: -VE; Inhibition of rBsep cutoff<3 [12]: -VE
Nc1nc(F)nc2c1ncn2[C@@H]1O[C@H](CO)[C@@H](O)[C@@H]1O [fludarabine]	–	-VE	-VE	-VE	vNo-DILI-Concern	-VE	+VE (IC50 threshold of 100 µM)	–	–	–	–	–	–	–	–	–	–	Bayesian Machine Learning [2]: -VE
CC(C)Cc1ccc(CC(=O)O)cc1 [ibufenac]	–	–	+VE	+VE	vMost-DILI-Concern	–	–	-VE	+VE	+VE	-VE	-VE	-VE	-VE	+VE	+VE	–	In vivo DILI ([3]; ref Garside 2014): +VE; Cluster 1-6 +VE Assay [11]: +VE
O=C(NC1CCN(CCc2c[nH]c3ccccc23)CC1)c1ccccc1 [indoramin]	-VE	-VE	-VE	–	–	-VE	-VE	–	–	–	–	–	–	–	–	–	–	–
CCC(C)n1ncn(-c2ccc(N3CCN(c4ccc(OCC5COC(Cn6cncn6)(c6ccc(Cl)cc6Cl)O5)cc4)CC3)cc2)c1=O (centres unmarked) [itraconazole]	–	+VE	+VE	+VE	vMost-DILI-Concern	-VE	+VE (IC50 threshold of 100 µM)	-VE	+VE	-VE	-VE	+VE	-VE	-VE	+VE	+VE	–	Structural based (HCI) [13]: +VE; Cluser analysis [8]: +VE; Structural based (HCI) [8]: +VE; In vivo DILI ([3]; ref O'Brien 2006): +VE; In vivo DILI ([3]; ref Persson 2013): +VE
Cc1ccc(Cl)c(Nc2ccccc2C(=O)O)c1Cl [meclofenamate]	+VE	–	-VE	–	–	–	–	–	–	–	–	–	–	–	–	–	–	Structural based (HCI) [10]: +VE; In vivo DILI ([3]; ref Xu 2008): +VE
COC(=O)C1=C(C)NC(C)=C(C(=O)OCCN(C)Cc2ccccc2)C1c1cccc([N+](=O)[O-])c1 (centres unmarked) [nicardipine]	–	–	–	–	–	–	–	–	–	–	–	–	–	–	-VE	–	–	hLiMTs ATP <20 x Cmax [14]: -VE
O=c1[nH]c2ccccc2n1C1CCN(CCCC(c2ccc(F)cc2)c2ccc(F)cc2)CC1 [pimozide]	+VE	+VE	+VE	-VE	vNo-DILI-Concern	-VE	+VE (IC50 threshold of 100 µM)	–	–	–	–	–	–	–	–	–	–	Structural based (HCI) [13]: -VE; In vivo DILI ([3]; ref O'Brien 2006): -VE
Cc1c(C(=O)NN2CCCCC2)nn(-c2ccc(Cl)cc2Cl)c1-c1ccc(Cl)cc1 [rimonabant]	+VE	–	-VE	–	–	–	–	–	–	–	–	–	–	–	–	–	+VE	In vivo DILI ([3]; ref Gustafsson 2014): -VE; THLE-Null/3A4 [9]: +VE
Cc1cc2c(cc1CC(=O)c1sccc1S(=O)(=O)Nc1onc(C)c1Cl)OCO2 [sitaxentan]	–	+VE	+VE	+VE	vMost-DILI-Concern	-VE	-VE	-VE	+VE	+VE	+VE	-VE	+VE	+VE	+VE	+VE	–	Partition Hybrid HRM Score [1]: +VE; Ro2 Hybrid HRM Score [1]: +VE; In vivo DILI ([3]; ref Aleo 2019): +VE
Cc1cc(CC(=O)O)n(C)c1C(=O)c1ccc(Cl)cc1 [zomepirac]	–	-VE	-VE	–	–	-VE	-VE	-VE	+VE	+VE	-VE	-VE	-VE	-VE	+VE	+VE	-VE	Structural based (HCI) [13]: +VE; Structural based (HCI) [10]: -VE; In vivo DILI ([3]; […]): +VE; In vivo DILI ([3]; ref Gustafsson 2014): -VE; In vivo DILI ([3]; ref O'Brien 2006): -VE; In vivo DILI ([3]; ref Xu 2008): -VE; THLE-Null/3A4 [9]: -VE
